Reference: article PMC11897524 (Frontiers in Pharmacology, 2025)

Key:
BRD4 [1] = molecular target: T1, BRD4 (Homo sapiens, UniProt O60885); assay: Microscale thermophoresis (MST) assay; assay type: binding; set-up: purchased Abcam
Description: The MST experiments were performed using the Monolith NT.115 instrument. BRD4 and STAT3 proteins were labeled with the Lys labeling kit at the final concentration of 100 nM. The compounds, previously suspended in 100% DMSO, were diluted in a buffer containing 20 mM Tris·HCl (pH 7.5), 100 mM NaCl, and 3 mM DTT, achieving a final DMSO concentration of 5%. The compounds were gradient-diluted in 1:1 dilution and starting from 100 μM. The samples were loaded into MST-standard glass capillaries. All the measurements were performed in triplicate using automatically assigned 50% MST power and 20% LED power. Data analysis was performed using GraphPad Prism 7.0 software.

A704 cells = assay: MTT cytotoxicity assay; assay type: cell-based; settings: Homo sapiens, cell growth, 48 h treatment, read-out: IC50 (μM) ± SD A704
Description: (§1) Human normal renal cortical proximal tubular epithelial cell line HK-2 and human renal carcinoma cell lines CAKI-2, SLR-23, 769-P, A704 and RCC4 were previously purchased from the American Type Culture Collection (ATCC, Manassas, VA, USA) or the European Collection of Cell Cultures (ECACC, Salisbury, United Kingdom). HK2, A704, and RCC4 cells were maintained in high glucose DMEM supplemented with 10% FBS and 1% penicillin/streptomycin. SLR-23 and […] cells were cultured in RPMI-1640 medium with 10% FBS and 1% penicillin/streptomycin. CAKI-2 cells were maintained in McCoy’s 5A medium supplemented with 10% FBS and 1% penicillin/streptomycin. All the cell lines were cultured at 37°C in a humidified atmosphere of 5% CO2 and 95% air.
(§2) The effect of hit compounds on cytotoxicity was determined as previously reported ([Ding et al., 2020]). In brief, cells treated with the tested compounds were added with MTT reagent to form formazan crystals, and then the optical density (OD) values at 570 nm were determined after the crystals were dissolved in DMSO. […] Next, the values of IC50 of the selected compounds against more RCC cell lines were determined. The 5 × 10^3 cells in 100 μL culture medium were injected into each well of a 96-well plate and cultured overnight. Add different concentrations of compounds and incubate for 48 h. Then 100 μL of MTT (0.5 mg/mL) solution was added to the 96-well plate and maintained at 37°C for 4 h. Finally, 200 μL of DMSO was added and shaken for 10 min. The OD values at 570 nm were determined by a Synergy 4 microplate reader.

SLR-23 cells = assay: MTT cytotoxicity assay; assay type: cell-based; settings: Homo sapiens, cell growth, 48 h treatment, read-out: IC50 (μM) ± SD SLR-23
Description: as §1, §2

RCC4 cells = assay: MTT cytotoxicity assay; assay type: cell-based; settings: Homo sapiens, cell growth, 48 h treatment, read-out: IC50 (μM) ± SD RCC4
Description: as §1, §2

[2] = system: HK-2 normal renal cortical proximal tubular epithelial cells; assay: MTT cytotoxicity assay; assay type: cell-based; settings: Homo sapiens, Epithelial cell, normal cell line, 48 h treatment, read-out: IC50 (μM) ± SD HK-2
Description: as §1, §2

769-P cells = assay: MTT cytotoxicity assay; assay type: cell-based; settings: Homo sapiens, cell growth, 48 h treatment, read-out: IC50 (μM) ± SD 769-P
Description: as §1, §2

STAT6 = STAT6 (Homo sapiens, UniProt P42226); assay: Binding affinity to BET and STAT family members
Chain of STAT6 (P42226 whole entry, the tested form may be a part): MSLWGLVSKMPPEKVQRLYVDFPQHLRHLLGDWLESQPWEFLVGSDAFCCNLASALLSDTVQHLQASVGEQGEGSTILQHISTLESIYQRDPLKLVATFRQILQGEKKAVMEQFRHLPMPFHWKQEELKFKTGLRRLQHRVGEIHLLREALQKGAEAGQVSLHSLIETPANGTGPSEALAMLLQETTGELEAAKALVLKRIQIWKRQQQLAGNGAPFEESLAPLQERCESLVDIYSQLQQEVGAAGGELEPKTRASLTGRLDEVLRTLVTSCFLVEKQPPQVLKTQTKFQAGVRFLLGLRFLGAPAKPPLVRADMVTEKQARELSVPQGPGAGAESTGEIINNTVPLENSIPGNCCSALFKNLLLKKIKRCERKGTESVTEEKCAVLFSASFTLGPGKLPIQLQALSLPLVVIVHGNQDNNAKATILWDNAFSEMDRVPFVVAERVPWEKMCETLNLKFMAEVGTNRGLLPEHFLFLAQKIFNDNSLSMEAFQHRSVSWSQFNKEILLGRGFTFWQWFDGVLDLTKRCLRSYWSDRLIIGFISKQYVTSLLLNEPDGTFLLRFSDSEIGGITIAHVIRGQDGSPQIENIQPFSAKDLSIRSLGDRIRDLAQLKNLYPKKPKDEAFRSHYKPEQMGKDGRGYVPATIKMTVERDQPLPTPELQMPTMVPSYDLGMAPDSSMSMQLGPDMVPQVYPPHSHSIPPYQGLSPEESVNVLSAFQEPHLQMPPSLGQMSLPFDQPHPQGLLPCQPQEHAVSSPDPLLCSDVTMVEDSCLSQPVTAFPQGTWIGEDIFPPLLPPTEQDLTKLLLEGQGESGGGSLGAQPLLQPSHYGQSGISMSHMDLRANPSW

STAT3 [3] = molecular target: T2, STAT3 (Homo sapiens, UniProt P40763); assay: NanoBRET assay in HEK293T cells; assay type: cell-based; set-up: NanoLuc BRD4/STAT3 FL Fusion Vector DNA; expressed in transfected cells; host or cells: HEK293T
Description: (§3) The method was performed as previously reported ([Horai et al., 2024]). Briefly, HEK293T cells were seeded in dishes and allow the cells to attach and recover for overnight. The mixture of Histone H4 HaloTag Fusion vector DNA, NanoLuc BRD4/STAT3 FL Fusion Vector DNA, opti-MEM, and FuGENE HD was added dropwise to the HEK293T cells followed by incubation for 20–24 h at 37°C and 5% CO2 and allow the proteins to express. The cells were collected and re-seeded in 384 well plates. HaloTag NanoBRET 618 Ligand was added to plate and allow the cells to attach and recover for 4 h. Serially diluted compounds were transferred to the plate and incubated the plate overnight. Then NanoBRET Nano-Glo Substrate in Opti-MEM was added, and shake plate to mix. The donor emission (450 nm) and acceptor emission (610 nm), BRET signal, were measured within 10 min of substrate addition using microplate reader (Envision, PerkinElmer). Data analysis was done by measuring the ratio of acceptor emission to donor emission (BRET ratio). IC50 values and curve fits were obtained using GraphPad Prism 7.0 software.
Target sequence in this assay (P40763 2-770): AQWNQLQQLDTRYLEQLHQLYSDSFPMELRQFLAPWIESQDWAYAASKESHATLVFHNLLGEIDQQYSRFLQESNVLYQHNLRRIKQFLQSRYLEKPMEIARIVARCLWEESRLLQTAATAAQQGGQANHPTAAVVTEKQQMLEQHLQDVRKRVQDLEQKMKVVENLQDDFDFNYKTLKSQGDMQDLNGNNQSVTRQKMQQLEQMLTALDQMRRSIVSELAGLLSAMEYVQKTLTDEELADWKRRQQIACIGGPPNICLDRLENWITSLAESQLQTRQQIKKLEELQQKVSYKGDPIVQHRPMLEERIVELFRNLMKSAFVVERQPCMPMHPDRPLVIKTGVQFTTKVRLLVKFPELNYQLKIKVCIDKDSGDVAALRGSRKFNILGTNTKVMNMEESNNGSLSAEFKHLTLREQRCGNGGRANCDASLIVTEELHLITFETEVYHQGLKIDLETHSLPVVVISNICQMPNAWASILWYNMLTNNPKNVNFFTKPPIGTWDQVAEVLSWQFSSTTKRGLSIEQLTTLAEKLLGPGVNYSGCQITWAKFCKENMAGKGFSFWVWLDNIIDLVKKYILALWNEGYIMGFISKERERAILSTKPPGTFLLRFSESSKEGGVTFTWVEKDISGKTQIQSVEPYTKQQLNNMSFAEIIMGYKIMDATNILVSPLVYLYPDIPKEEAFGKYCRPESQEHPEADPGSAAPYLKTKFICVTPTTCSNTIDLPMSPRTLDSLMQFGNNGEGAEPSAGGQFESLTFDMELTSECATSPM

BRD4 [4] = molecular target: T1, BRD4; assay: NanoBRET assay in HEK293T cells; assay type: cell-based; set-up: NanoLuc BRD4/STAT3 FL Fusion Vector DNA; expressed in transfected cells; host or cells: HEK293T
Description: as §3

[5] = system: shBRD4/STAT3-CAKI-2 cells; assay: MTT assay on shRNA-transfected CAKI-2 cells; assay type: cell-based; settings: Homo sapiens, CAKI-2 stably expressing BRD4/STAT3 shRNA, 48 h, read-out: IC50 (μM) ± SD shBRD4/STAT3-CAKI-2
Description: as §2
(§4) ^aIC50 (μM) is the concentration of compound needed to reduce cell growth by 50% following 48 h cell treatment with BST-4. shControl-CAKI-2: CAKI-2 cells stably expressing Control shRNA; shBRD4-CAKI-2 cells: CAKI-2 cells stably expressing BRD4 shRNA; shSTAT3-CAKI-2 cells: CAKI-2 cells stably expressing STAT3 shRNA; shBRD4/STAT3-CAKI-2 cells: CAKI-2 cells stably expressing BRD4/STAT3 shRNA. Each experiment was performed at least three times. Data are presented as the mean ± SD.

shControl-CAKI-2 cells = assay: MTT assay on shRNA-transfected CAKI-2 cells; assay type: cell-based; settings: Homo sapiens, CAKI-2 stably expressing Control shRNA, 48 h, read-out: IC50 (μM) ± SD shControl-CAKI-2
Description: as §2, §4

shBRD4-CAKI-2 cells = assay: MTT assay on shRNA-transfected CAKI-2 cells; assay type: cell-based; settings: Homo sapiens, CAKI-2 stably expressing BRD4 shRNA, 48 h, read-out: IC50 (μM) ± SD shBRD4-CAKI-2
Description: as §2, §4

shSTAT3-CAKI-2 cells = assay: MTT assay on shRNA-transfected CAKI-2 cells; assay type: cell-based; settings: Homo sapiens, CAKI-2 stably expressing STAT3 shRNA, 48 h, read-out: IC50 (μM) ± SD shSTAT3-CAKI-2
Description: as §2, §4

STAT5a = STAT5a (Homo sapiens, UniProt P42229); assay: Binding affinity to BET and STAT family members
Chain of STAT5a (P42229 whole entry): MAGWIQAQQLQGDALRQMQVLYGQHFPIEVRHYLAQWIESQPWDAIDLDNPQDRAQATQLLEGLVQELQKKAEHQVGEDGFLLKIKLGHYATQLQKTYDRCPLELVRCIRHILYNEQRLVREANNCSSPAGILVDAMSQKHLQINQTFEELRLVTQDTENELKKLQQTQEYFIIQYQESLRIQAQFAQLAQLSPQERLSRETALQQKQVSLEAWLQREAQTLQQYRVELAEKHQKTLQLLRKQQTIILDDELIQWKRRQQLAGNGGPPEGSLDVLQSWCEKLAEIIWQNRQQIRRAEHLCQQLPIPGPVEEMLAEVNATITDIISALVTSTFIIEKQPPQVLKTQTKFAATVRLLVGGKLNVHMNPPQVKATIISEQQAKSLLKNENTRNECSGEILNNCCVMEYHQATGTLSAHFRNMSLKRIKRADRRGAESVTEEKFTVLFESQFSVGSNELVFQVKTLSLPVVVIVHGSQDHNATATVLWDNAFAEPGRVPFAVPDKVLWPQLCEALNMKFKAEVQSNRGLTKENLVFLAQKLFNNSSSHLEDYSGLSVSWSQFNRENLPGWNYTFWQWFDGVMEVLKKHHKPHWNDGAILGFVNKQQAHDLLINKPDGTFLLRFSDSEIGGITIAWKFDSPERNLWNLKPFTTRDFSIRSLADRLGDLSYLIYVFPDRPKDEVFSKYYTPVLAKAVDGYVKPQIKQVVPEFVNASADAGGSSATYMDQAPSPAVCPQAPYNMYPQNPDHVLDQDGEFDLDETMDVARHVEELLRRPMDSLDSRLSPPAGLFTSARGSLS

BRD2 = BRD2 (Homo sapiens, UniProt P25440); assay: Binding affinity to BET and STAT family members
Chain of BRD2 (P25440 whole entry): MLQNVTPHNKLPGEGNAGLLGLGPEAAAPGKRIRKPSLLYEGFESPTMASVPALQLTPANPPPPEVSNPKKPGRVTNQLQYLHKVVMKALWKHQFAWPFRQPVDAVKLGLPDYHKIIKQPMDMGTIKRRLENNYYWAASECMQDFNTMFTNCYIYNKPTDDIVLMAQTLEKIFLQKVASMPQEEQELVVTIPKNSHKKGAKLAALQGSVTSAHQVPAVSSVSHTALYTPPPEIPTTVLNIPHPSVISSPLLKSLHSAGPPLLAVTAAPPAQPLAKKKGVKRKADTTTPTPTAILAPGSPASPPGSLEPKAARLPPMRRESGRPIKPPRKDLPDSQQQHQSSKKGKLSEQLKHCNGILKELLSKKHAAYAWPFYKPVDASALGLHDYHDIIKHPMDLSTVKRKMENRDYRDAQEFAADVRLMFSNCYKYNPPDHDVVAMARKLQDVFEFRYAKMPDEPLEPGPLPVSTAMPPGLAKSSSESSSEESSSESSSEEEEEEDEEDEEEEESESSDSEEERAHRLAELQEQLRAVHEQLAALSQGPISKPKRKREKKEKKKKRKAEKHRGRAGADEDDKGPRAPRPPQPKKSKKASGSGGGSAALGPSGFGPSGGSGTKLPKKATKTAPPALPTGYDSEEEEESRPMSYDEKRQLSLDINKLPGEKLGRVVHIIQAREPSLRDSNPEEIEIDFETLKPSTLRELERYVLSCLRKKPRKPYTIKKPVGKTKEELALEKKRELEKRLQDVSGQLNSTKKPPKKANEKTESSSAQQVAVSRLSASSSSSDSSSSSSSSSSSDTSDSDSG

STAT3 [6] = molecular target: T2, STAT3; assay: STAT3 binding inhibition assay; set-up: purchased Abcam
Target sequence in this assay (P40763 whole entry, the tested form may be a part): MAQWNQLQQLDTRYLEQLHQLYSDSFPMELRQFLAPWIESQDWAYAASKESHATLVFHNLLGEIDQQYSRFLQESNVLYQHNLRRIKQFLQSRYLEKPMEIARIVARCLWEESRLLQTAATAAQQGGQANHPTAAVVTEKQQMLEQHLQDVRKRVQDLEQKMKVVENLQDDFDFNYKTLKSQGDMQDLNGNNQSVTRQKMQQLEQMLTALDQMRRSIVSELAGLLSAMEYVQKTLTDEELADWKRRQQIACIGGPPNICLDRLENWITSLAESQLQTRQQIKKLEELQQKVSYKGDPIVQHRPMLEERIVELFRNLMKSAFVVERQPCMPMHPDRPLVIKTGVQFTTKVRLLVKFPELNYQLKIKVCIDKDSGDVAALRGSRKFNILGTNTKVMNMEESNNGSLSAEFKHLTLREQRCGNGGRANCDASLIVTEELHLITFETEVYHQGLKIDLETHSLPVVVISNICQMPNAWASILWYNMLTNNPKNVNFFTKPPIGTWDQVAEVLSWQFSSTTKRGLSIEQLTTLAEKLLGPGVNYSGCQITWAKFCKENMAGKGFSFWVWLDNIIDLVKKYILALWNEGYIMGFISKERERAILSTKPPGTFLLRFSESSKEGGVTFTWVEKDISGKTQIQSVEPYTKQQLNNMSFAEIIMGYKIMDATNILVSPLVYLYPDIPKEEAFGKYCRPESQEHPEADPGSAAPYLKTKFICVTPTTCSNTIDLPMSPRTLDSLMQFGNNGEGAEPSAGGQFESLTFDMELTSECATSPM

## CCS(=O)(=O)Cc1cnc(Oc2c(F)cc(F)cc2OCCCCOc2ccc(/C=C/c3cc(OC)cc(OC)c3)cc2)c(-c2cc(C)c3c(=O)[nH]ccn23)c1 [BST-4]
BRD4 [1]; Kd ratio vs RVX-208, MST
  BRD4 binding affinity relative to RVX-208: 17 fold
BRD4 [1]; MST
  Kd: 0.00146 ± 7e-05 µM
A704 cells
  IC50: 1.07 ± 0.18 µM
SLR-23 cells
  IC50: 1.52 ± 0.43 µM
RCC4 cells
  IC50: 2.19 ± 0.64 µM
[2]
  IC50: > 10 µM
769-P cells
  IC50: 1.68 ± 0.32 µM
STAT6
  Kd: > 10 µM
STAT3 [3]
  IC50: 0.00517 ± 9e-05 µM
BRD4 [4]
  IC50: 0.00258 ± 7e-05 µM
[5]
  IC50: > 10 µM
shControl-CAKI-2 cells
  IC50: 0.76 ± 0.05 µM
shBRD4-CAKI-2 cells
  IC50: 5.09 ± 0.27 µM
shSTAT3-CAKI-2 cells
  IC50: 3.48 ± 0.21 µM
STAT5a
  Kd: > 10 µM
BRD2
  Kd: > 10 µM
STAT3 [6]
  IC50: 0.00807 ± 0.00051 µM
STAT3 [6]; IC50 ratio vs CJ-1383
  STAT3 inhibition relative to CJ-1383: about 115 fold
